Experimental findings from PubChem BioAssay (NCI) are described below.

Among the test systems are HOP-92 NSCLC; SK-MEL-28 melanoma; MDA-MB-435; ACHN renal; HS 578T breast; NCI/ADR-RES ovarian; A498 renal; SF-268 CNS; HCC-2998 colon; OVCAR-4 ovarian; IGROV1 ovarian; EKVX NSCLC.
Common to all, as to test: growth of human tumour cells (NCI), 48 h

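Assay format: 96-well plates, 48-hour exposure. TGI: concentration producing complete growth inhibition.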

As to `Cc1ccc(-n2cc([Si](C)(C)C)nn2)s1`, the TGI in the assay on HOP-92 NSCLC, with SK-MEL-28 melanoma, in the assay on MDA-MB-435, with ACHN renal, in the assay on HS 578T breast and in the assay with NCI/ADR-RES ovarian was > 100 µM throughout. Besides, the TGI in the assay on A498 renal, in the assay on SF-268 CNS, in the assay on HCC-2998 colon and in the assay with OVCAR-4 ovarian was > 100 µM each time.

For `Cc1ccc(N=C2C(=Nc3ccc(C)cc3)N(c3ccc(C)cc3)C(=S)N2C(=O)c2ccccc2)cc1`, the TGI in the assay with HOP-92 NSCLC, with SK-MEL-28 melanoma, in the assay on MDA-MB-435, in the assay with ACHN renal, with HS 578T breast and in the assay with NCI/ADR-RES ovarian was > 100 µM throughout. Moreover, the TGI in the assay on SF-268 CNS, with IGROV1 ovarian, with HCC-2998 colon and in the assay with EKVX NSCLC was > 100 µM throughout.

For `O=c1[nH]c(=S)c2cc3c(=S)[nH]c(=O)n(CCO)c3nc2n1CCO`, the TGI in the assay on HOP-92 NSCLC, in the assay with SK-MEL-28 melanoma, with MDA-MB-435, in the assay with ACHN renal, in the assay on NCI/ADR-RES ovarian and with A498 renal was > 100 µM throughout. The TGI in the assay with SF-268 CNS, in the assay on IGROV1 ovarian, in the assay on HCC-2998 colon, with OVCAR-4 ovarian and in the assay on EKVX NSCLC was > 100 µM in each case.

Turning to `CCOC(=O)c1c(-c2cccc3ccccc23)c(C#N)c(=S)n(C2OC(COC(C)=O)C(OC(C)=O)C(OC(C)=O)C2OC(C)=O)c1C` (stereo not given), the TGI in the assay with HOP-92 NSCLC, with SK-MEL-28 melanoma, in the assay with MDA-MB-435, in the assay on ACHN renal, in the assay on NCI/ADR-RES ovarian and with A498 renal was > 100 µM in each case. Further, the TGI with SF-268 CNS, in the assay on IGROV1 ovarian, in the assay on HCC-2998 colon and in the assay with OVCAR-4 ovarian was > 100 µM in each case.

For the compound `O=[N+]([O-])c1cccc2nccc(NCCCO)c12`, the TGI is 26.5 µM with SK-MEL-28 melanoma; 26.9 µM in the assay on MDA-MB-435; 53.5 µM with ACHN renal; 43.3 µM in the assay on HS 578T breast; 23.6 µM in the assay with A498 renal; 28.6 µM in the assay with SF-268 CNS. For the same compound, the TGI was found to be 27.5 µM in the assay with IGROV1 ovarian, 26 µM with HCC-2998 colon, 23.8 µM with OVCAR-4 ovarian and 23.2 µM in the assay on EKVX NSCLC.

In the case of `COc1ccc(C2=NN=C3C(c4ccccc4)=Nc4ccccc4N3C2)cc1`, the TGI in the assay on HOP-92 NSCLC was > 100 µM; with SK-MEL-28 melanoma, > 100 µM; with MDA-MB-435, > 100 µM; in the assay on ACHN renal, > 100 µM; in the assay on NCI/ADR-RES ovarian, 90.1 µM; with A498 renal, > 100 µM. Also, the TGI is > 100 µM with SF-268 CNS; > 100 µM in the assay with IGROV1 ovarian; > 100 µM in the assay with HCC-2998 colon; 45.6 µM in the assay with OVCAR-4 ovarian; > 100 µM in the assay on EKVX NSCLC.

On to `CSc1scc2c1/C(=N/NC(N)=O)CCC2`, for which the TGI in the assay on HOP-92 NSCLC was 90 µM; in the assay with SK-MEL-28 melanoma, > 100 µM; in the assay with MDA-MB-435, > 100 µM; with ACHN renal, > 100 µM; in the assay with HS 578T breast, > 100 µM; with NCI/ADR-RES ovarian it was 73.4 µM. The TGI in the assay on A498 renal, with SF-268 CNS, with HCC-2998 colon and in the assay with OVCAR-4 ovarian was > 100 µM throughout.

On to `O=C(O)Cn1cc([N+](=O)[O-])c(=O)c2ccccc21`, for which the TGI in the assay with SK-MEL-28 melanoma, in the assay with MDA-MB-435, in the assay on ACHN renal, in the assay with HS 578T breast, in the assay on NCI/ADR-RES ovarian and with A498 renal was > 100 µM in each case. Moreover, the TGI in the assay on SF-268 CNS, with IGROV1 ovarian and in the assay with HCC-2998 colon was > 100 µM in each case.

Take `O=C1CC2CCC(C1)S2=O` (stereo not given): the TGI in the assay with HOP-92 NSCLC, in the assay with SK-MEL-28 melanoma, with MDA-MB-435, with HS 578T breast, in the assay with NCI/ADR-RES ovarian and in the assay on SF-268 CNS was > 100 µM throughout. Further, the TGI in the assay on IGROV1 ovarian, in the assay on HCC-2998 colon, in the assay with OVCAR-4 ovarian and in the assay with EKVX NSCLC was > 100 µM in each case.

For `COc1cc(CS(=O)c2ccc(O)cc2)cc(OC)c1OC` (stereo not given), the TGI with HOP-92 NSCLC, in the assay with SK-MEL-28 melanoma, with MDA-MB-435, in the assay with ACHN renal, with HS 578T breast and with NCI/ADR-RES ovarian was > 100 µM throughout. Moreover, the TGI with A498 renal, in the assay on SF-268 CNS, in the assay on IGROV1 ovarian and in the assay on EKVX NSCLC was > 100 µM each time.

On to `Oc1ccc(Cl)cc1C1=NC(/N=C\c2ccccc2)=NC(c2ccccc2)C1` (stereo not given), for which the TGI with HOP-92 NSCLC, in the assay with SK-MEL-28 melanoma, with MDA-MB-435, with HS 578T breast, in the assay on NCI/ADR-RES ovarian and in the assay with A498 renal was > 100 µM in each case. For the same compound, the TGI in the assay with SF-268 CNS, in the assay with IGROV1 ovarian and with EKVX NSCLC was > 100 µM throughout.

On to `CCN1CCC(O)(/C=C/c2ccc(OC)cc2)C(C(=O)/C=C/c2ccc(OC)cc2)C1` (stereo not given), for which the TGI in the assay on HOP-92 NSCLC turned out to be 21.3 µM; in the assay with SK-MEL-28 melanoma, 24.4 µM; in the assay on MDA-MB-435 it was 19 µM; in the assay with ACHN renal it was 26.6 µM; with NCI/ADR-RES ovarian, 21.9 µM; with A498 renal, 27.2 µM. The TGI in the assay with SF-268 CNS is 28.8 µM; in the assay on IGROV1 ovarian it was 29.8 µM; in the assay with HCC-2998 colon it was 29 µM; in the assay on OVCAR-4 ovarian, 26.7 µM; in the assay with EKVX NSCLC, 26.4 µM.

`[N-]=[N+]=C(C(=O)N1CCCC1=O)S(=O)(=O)c1ccccc1`: the TGI with SK-MEL-28 melanoma, in the assay with MDA-MB-435, with ACHN renal, in the assay on HS 578T breast, in the assay on NCI/ADR-RES ovarian and with SF-268 CNS was > 100 µM each time. In addition, the TGI with IGROV1 ovarian, in the assay with HCC-2998 colon and in the assay on EKVX NSCLC was > 100 µM in each case.
